Measurements as given in the supplement of paper PMC11061612.

Assays:
Experiment in all cases: Bliss excess, mean over the matrix (fraction); higher = more synergy
[1] = system: EFM-192A (Breast Carcinoma)
In short: (§1)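 Cell lines grown in DMEM/F12 or RPMI with 10% FBS were plated in 1536-well plates and held 24 hours at 37°C, 5% CO2 before 72 hours of exposure to two-drug dose matrices, with DMSO typically at 0.2%. CellTiter-Glo 2.0 luminescence gave viability, which was converted to inhibition. Vehicle wells were set to 0 and blank wells to 1. Combination Emax is the second-highest inhibition in the matrix, and Bliss excess is the observed combination effect minus the expected EA + EB − EA·EB, where EA and EB are the single-agent effects.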

A172 (Glioblastoma) = system: A172 (Glioblastoma)
In short: as §1

[2] = system: TYK-nu (Ovarian Carcinoma)
In short: as §1

[3] = system: WSU-DLCL2 (B-Cell Non-Hodgkin's Lymphoma)
In short: as §1

[4] = system: MES-SA (Other Solid Carcinomas)
In short: as §1

[5] = system: PA-TU-8902 (Pancreatic Carcinoma)
In short: as §1

[6] = system: JHH-6 (Hepatocellular Carcinoma)
In short: as §1

SK-MEL-1 (Melanoma) = system: SK-MEL-1 (Melanoma)
In short: as §1

[7] = system: HCT-116 (Colorectal Carcinoma)
In short: as §1

Saos-2 (Osteosarcoma) = system: Saos-2 (Osteosarcoma)
In short: as §1

[8] = system: EKVX (Non-Small Cell Lung Carcinoma)
In short: as §1

[9] = system: NOMO-1 (Acute Myeloid Leukemia)
In short: as §1

[10] = system: RCC10RGB (Kidney Carcinoma)
In short: as §1

H4 (Low Grade Glioma) = system: H4 (Low Grade Glioma)
In short: as §1

[11] = system: SNG-M (Endometrial Carcinoma)
In short: as §1

[12] = system: HCC-827 (Lung Adenocarcinoma)
In short: as §1

[13] = system: YT (Other Blood Carcinomas)
In short: as §1

[14] = system: SLVL (B-Cell Non-Hodgkin's Lymphoma)
In short: as §1

[15] = system: SKN-3 (Head and Neck Carcinoma)
In short: as §1

[16] = system: BICR78 (Oral Cavity Carcinoma)
In short: as §1

Row | SMILES | Bliss excess [1] | Bliss excess (A172 (Glioblastoma)) | Bliss excess [2] | Bliss excess [3] | Bliss excess [4] | Bliss excess [5] | Bliss excess [6] | Bliss excess (SK-MEL-1 (Melanoma)) | Bliss excess [7] | Bliss excess (Saos-2 (Osteosarcoma)) | Bliss excess [8] | Bliss excess [9] | Bliss excess [10] | Bliss excess (H4 (Low Grade Glioma)) | Bliss excess [11] | Bliss excess [12] | Bliss excess [13] | Bliss excess [14] | Bliss excess [15] | Bliss excess [16]
1 | CN(CCO)CC[C@H](CSc1ccccc1)Nc1ccc(S(=O)(=O)NC(=O)c2ccc(N3CCC([C@@H](O)c4ccccc4-c4ccc(Cl)cc4)CC3)cc2)cc1S(=O)(=O)C(F)(F)F [AZD4320] + CN(C)CCCOc1ccc(-c2ccc3ncc4c(c3c2)n(C2CCOCC2)c(=O)n4C)cn1 [AZD0156] (first compound max 1 µM, 7x7, partner max 1 µM) | -0.0468 | -0.0152 | -0.1 | 0.0117 | -0.0315 | -0.0511 | -0.0367 | -0.0254 | -0.0518 | -0.0323 | -0.0392 | 0.0017 | -0.09 | -0.0334 | -0.0467 | -0.0351 | -0.0281 | -0.0117 | -0.0296 | -0.0268
2 | CN(CCO)CC[C@H](CSc1ccccc1)Nc1ccc(S(=O)(=O)NC(=O)c2ccc(N3CCC([C@@H](O)c4ccccc4-c4ccc(Cl)cc4)CC3)cc2)cc1S(=O)(=O)C(F)(F)F [AZD4320] + C[C@@H]1COCCN1C2=NC(=NC(=C2)C3(CC3)[S@](=N)(=O)C)C4=C5C=CNC5=NC=C4 [AZD6738] (first compound max 1 µM, 7x7, partner max 10 µM) | -0.0226 | -0.0748 | -0.0115 | 0.0329 | -0.0382 | -0.0378 | -0.023 | -0.0757 | -0.0143 | 0.0256 | -0.0458 | 0.0303 | -0.0734 | -0.0249 | -0.0426 | 0.0192 | -0.0251 | 0.0156 | -0.0127 | 0.0039
3 | CN(CCO)CC[C@H](CSc1ccccc1)Nc1ccc(S(=O)(=O)NC(=O)c2ccc(N3CCC([C@@H](O)c4ccccc4-c4ccc(Cl)cc4)CC3)cc2)cc1S(=O)(=O)C(F)(F)F [AZD4320] + C[C@@H](Nc1cc(F)cc(F)c1)c1cc(C(=O)N(C)C)cc2c(=O)cc(N3CCOCC3)oc12 [AZD8186] (first compound max 1 µM, 7x7, partner max 3 µM) | 0.0057 | 0.0387 | -0.0224 | 0.0852 | 0.0139 | -0.0139 | -0.0164 | -0.0523 | 0.0266 | -0.0258 | -0.0127 | 0.0515 | -0.0652 | 0.0521 | 0.0018 | -0.0294 | 0.0327 | 0.0476 | 0.0112 | -0.0594
4 | CN(CCO)CC[C@H](CSc1ccccc1)Nc1ccc(S(=O)(=O)NC(=O)c2ccc(N3CCC([C@@H](O)c4ccccc4-c4ccc(Cl)cc4)CC3)cc2)cc1S(=O)(=O)C(F)(F)F [AZD4320] + Cc1cc2ncnn2cc1Nc1ncc2c(n1)n(C1CCOCC1)c(=O)n2C [AZD7648] (first compound max 1 µM, 7x7, partner max 10 µM) | -0.0265 | -0.0828 | -0.0405 | 0.0591 | -0.0399 | -0.0429 | -0.024 | -0.025 | -0.0197 | -0.0389 | -0.0398 | 0.0103 | -0.077 | -0.0355 | -0.0007 | -0.0339 | 0.0291 | 0.0119 | -0.0463 | -0.0167
5 | Cc1c2c(nn1C)CSCc1cc(n(C)n1)CSc1cc(c3ccccc3c1)OCCCc1c(C(=O)O)n(C)c3c-2c(Cl)ccc13 [AZD5991] + C1CN(CCC1(C(=O)N[C@@H](CCO)C2=CC=C(C=C2)Cl)N)C3=NC=NC4=C3C=CN4 [Capivasertib] (first compound max 1 µM, 7x7, partner max 3 µM) | 0.0579 | -0.0001 | 0.0172 | 0.013 | -0.0144 | -0.041 | -0.0163 | -0.0373 | -0.0275 | 0.0473 | -0.015 | 0.0814 | -0.0085 | 0.0378 | -0.0065 | -0.0212 | -0.0466 | 0.004 | -0.0285 | -0.0198
6 | Cc1c2c(nn1C)CSCc1cc(n(C)n1)CSc1cc(c3ccccc3c1)OCCCc1c(C(=O)O)n(C)c3c-2c(Cl)ccc13 [AZD5991] + CC1(C)CCC(CN2CCN(c3ccc(C(=O)NS(=O)(=O)c4ccc(NCC5CCOCC5)c([N+](=O)[O-])c4)c(Oc4cnc5[nH]ccc5c4)c3)CC2)=C(c2ccc(Cl)cc2)C1 [Venetoclax] (first compound max 1 µM, 7x7, partner max 1 µM) | 0.0257 | -0.0222 | -0.0144 | 0.173 | -0.0068 | -0.0595 | -0.0417 | -0.0536 | -0.0317 | 0.0174 | -0.0423 | 0.256 | -0.0086 | 0.0384 | -0.027 | -0.0269 | -0.0017 | 0.147 | -0.03 | -0.0106
7 | Cc1c2c(nn1C)CSCc1cc(n(C)n1)CSc1cc(c3ccccc3c1)OCCCc1c(C(=O)O)n(C)c3c-2c(Cl)ccc13 [AZD5991] + CCN(CCO)CCCOc1ccc2c(Nc3cc(CC(=O)Nc4cccc(F)c4)[nH]n3)ncnc2c1 [AZD2811] (first compound max 1 µM, 7x7, partner max 1 µM) | 0.0012 | -0.0101 | 0.0438 | 0.0804 | 0.138 | -0.0356 | -0.0298 | -0.0194 | 0.0295 | 0.0534 | -0.0356 | 0.0894 | -0.0567 | 0.0207 | 0.0446 | 0.0011 | 0.0185 | 0.0734 | 0.0134 | 0.0088
8 | Cc1c2c(nn1C)CSCc1cc(n(C)n1)CSc1cc(c3ccccc3c1)OCCCc1c(C(=O)O)n(C)c3c-2c(Cl)ccc13 [AZD5991] + CN(C)CCCOc1ccc(-c2ccc3ncc4c(c3c2)n(C2CCOCC2)c(=O)n4C)cn1 [AZD0156] (first compound max 1 µM, 7x7, partner max 1 µM) | -0.0427 | -0.0019 | -0.034 | -0.0033 | 0.017 | 0.0116 | -0.0079 | -0.0322 | 0.0431 | -0.0158 | -0.0139 | -0.0177 | -0.0619 | 0.0376 | 0.01 | 0.011 | -0.0197 | 0.0198 | -0.0173 | 0.0199
9 | Cc1c2c(nn1C)CSCc1cc(n(C)n1)CSc1cc(c3ccccc3c1)OCCCc1c(C(=O)O)n(C)c3c-2c(Cl)ccc13 [AZD5991] + C[C@@H](Nc1cc(F)cc(F)c1)c1cc(C(=O)N(C)C)cc2c(=O)cc(N3CCOCC3)oc12 [AZD8186] (first compound max 1 µM, 7x7, partner max 3 µM) | -0.0207 | -0.004 | -0.0118 | -0.058 | -0.0381 | -0.0361 | -0.0281 | -0.0232 | -0.0421 | -0.0271 | 0.0062 | 0.0361 | -0.0349 | -0.0054 | -0.0242 | 0.0064 | 0.0223 | -0.0262 | -0.0606 | -0.034
10 | Cc1c2c(nn1C)CSCc1cc(n(C)n1)CSc1cc(c3ccccc3c1)OCCCc1c(C(=O)O)n(C)c3c-2c(Cl)ccc13 [AZD5991] + Cn1cnc2c(F)c(Nc3ccc(Br)cc3Cl)c(C(=O)NOCCO)cc21 [Selumetinib] (first compound max 1 µM, 7x7, partner max 3 µM) | -0.0116 | 0.0179 | -0.0052 | -0.0123 | -0.0247 | -0.0466 | -0.0116 | -0.01 | -0.0049 | -0.007 | -0.0474 | 0.135 | 0.0528 | -0.0265 | -0.0258 | -0.0091 | -0.0051 | 0.0516 | 0.0324 | -0.0106
11 | C[C@@H]1COCCN1c1cc(C2([S@](C)(=N)=O)CC2)nc(-c2ccnc3[nH]ccc23)n1 [AZD6738] + O=C(c1cc(Cc2n[nH]c(=O)c3ccccc23)ccc1F)N1CCN(C(=O)C2CC2)CC1 [Olaparib] (first compound max 10 µM, 7x7, partner max 10 µM) | 0.0387 | -0.0398 | -0.0674 | -0.0119 | -0.0519 | -0.0251 | -0.0039 | -0.0012 | 0.0928 | 0.0118 | 0.0206 | -0.0031 | 0.0483 | 0.0238 | 0.0294 | -0.0086 | -0.0376 | -0.0355 | -0.0217 | -0.0431
12 | Cc1cc2ncnn2cc1Nc1ncc2c(n1)n(C1CCOCC1)c(=O)n2C [AZD7648] + C=CCn1c(=O)c2cnc(Nc3ccc(N4CCN(C)CC4)cc3)nc2n1-c1cccc(C(C)(C)O)n1 [AZD1775] (first compound max 10 µM, partner max 1 µM) | 0.0338 | 0.0587 | -0.0394 | -0.0048 | -0.0182 | 0.0152 | 0.011 | -0.0561 | 0.008 | -0.0696 | 0.0061 | 0.0204 | 0.0016 | -0.082 | 0.0527 | -0.0044 | -0.124 | -0.035 | -0.0033 | 0.0189
13 | Cc1cc2ncnn2cc1Nc1ncc2c(n1)n(C1CCOCC1)c(=O)n2C [AZD7648] + CCN(CCO)CCCOc1ccc2c(Nc3cc(CC(=O)Nc4cccc(F)c4)[nH]n3)ncnc2c1 [AZD2811] (first compound max 10 µM, 7x7, partner max 1 µM) | -0.0175 | 0.0537 | 0.0625 | 0.127 | 0.0834 | 0.0315 | 0.0238 | -0.0162 | 0.0304 | 0.0364 | -0.0199 | 0.131 | 0.0069 | 0.006 | 0.0507 | -0.0026 | 0.0407 | 0.0756 | -0.0037 | -0.0135
14 | Cc1cc2ncnn2cc1Nc1ncc2c(n1)n(C1CCOCC1)c(=O)n2C [AZD7648] + CN(C)CCCOc1ccc(-c2ccc3ncc4c(c3c2)n(C2CCOCC2)c(=O)n4C)cn1 [AZD0156] (first compound max 10 µM, 7x7, partner max 1 µM) | -0.0119 | -0.034 | -0.0465 | 0.0127 | 0.0228 | -0.0013 | -0.0033 | -0.0082 | 0.0277 | -0.016 | 0.0001 | 0.0371 | -0.0735 | -0.0253 | 0.0073 | 0.0386 | -0.0389 | -0.0164 | -0.0064 | 0.0054
